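Exposure lasted 48 hours, with cells grown in 96-well plates and compounds tested at five concentrations. At the GI50, growth is halved.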 Activity calls are given as the source filed them. Cut-off read from the data, not from the text of the source: active = GI50 up to about 1.1 µM and inactive = higher. Where a SMILES comes first, the peptide text is derived from it. The star is where a group is joined. Cbz = O=C(OCc1ccccc1)*; Boc = CC(C)(C)OC(=O)*; Bn = c1ccc(C*)cc1
Experiments:
Assay in all cases: growth of human tumour cells (NCI), 48 h
SK-MEL-2 = test system: SK-MEL-2
SNB-19 = test system: SNB-19
UACC-62 = test system: UACC-62
SF-268 = test system: SF-268
DU-145 = test system: DU-145
OVCAR-3 = test system: OVCAR-3
HCT-15 = test system: HCT-15
OVCAR-8 = test system: OVCAR-8
MDA-MB-435 = test system: MDA-MB-435
PC-3 = test system: PC-3
SK-MEL-5 = test system: SK-MEL-5
MDA-N = test system: MDA-N
Malme-3M = test system: Malme-3M
LOX IMVI = test system: LOX IMVI
KM12 = test system: KM12
MCF7 = test system: MCF7
OVCAR-4 = test system: OVCAR-4
EKVX = test system: EKVX
RXF 393 = test system: RXF 393

Row | SMILES | GI50 (SK-MEL-2) | GI50 (SNB-19) | GI50 (UACC-62) | GI50 (SF-268) | GI50 (DU-145) | GI50 (OVCAR-3) | GI50 (HCT-15) [µM] | GI50 (OVCAR-8) | GI50 (MDA-MB-435) | GI50 (PC-3) | GI50 (SK-MEL-5) | GI50 (MDA-N) | GI50 (Malme-3M) | GI50 (LOX IMVI) | GI50 (KM12) | GI50 (MCF7) | GI50 (OVCAR-4) | GI50 (EKVX) | GI50 (RXF 393)
1 | Cc1ccc(SCC(OCn2cnc3c(Cl)nc(N)nc32)[C@H](C)F)cc1 (some centres not stated) | > 100 µM (inactive) | > 100 µM (inactive) | > 100 µM (inactive) | > 100 µM (inactive) | > 100 µM (inactive) | > 100 µM (inactive) | > 100 | 63 µM (inactive) | > 100 µM (inactive) | 60.5 µM (inactive) | 18.1 µM (inactive) | > 100 µM (inactive) | 88.9 µM (inactive) | > 100 µM (inactive) | 81.8 µM (inactive) | 29.9 µM (inactive) | 71.3 µM (inactive) | – | –
2 | CCCCC(=O)c1ccc2ccccc2c1O | > 100 µM (inactive) | > 100 µM (inactive) | > 100 µM (inactive) | > 100 µM (inactive) | > 100 µM (inactive) | – | > 100 | > 100 µM (inactive) | > 100 µM (inactive) | > 100 µM (inactive) | > 100 µM (inactive) | – | – | > 100 µM (inactive) | > 100 µM (inactive) | 52.8 µM (inactive) | > 100 µM (inactive) | 62.1 µM (inactive) | 99.1 µM (inactive)
3 | COc1cc(/C=C2\C(=O)N(c3ccccc3Cl)C(c3ccccc3)S2(=O)=O)cc(OC)c1OC (configuration not stated) | 44.1 µM (inactive) | 34.7 µM (inactive) | 31.9 µM (inactive) | 46.7 µM (inactive) | 59 µM (inactive) | 47.4 µM (inactive) | 44.7 | 45.8 µM (inactive) | 33.3 µM (inactive) | – | 18.6 µM (inactive) | 15.2 µM (inactive) | 28.7 µM (inactive) | 21.7 µM (inactive) | 27.2 µM (inactive) | 25.6 µM (inactive) | 57.3 µM (inactive) | 41.4 µM (inactive) | 19.5 µM (inactive)
4 | COC1=NCc2ccccc2-c2ccccc21 | > 100 µM (inactive) | > 100 µM (inactive) | > 100 µM (inactive) | > 100 µM (inactive) | – | > 100 µM (inactive) | > 100 | > 100 µM (inactive) | – | – | > 100 µM (inactive) | – | > 100 µM (inactive) | > 100 µM (inactive) | > 100 µM (inactive) | – | > 100 µM (inactive) | – | > 100 µM (inactive)
5 | CC(C)(C)OC(=O)NC(Cc1ccc(OCc2ccccc2)cc1)C(=O)NC(CCCCNC(=O)OCc1ccccc1)C(=O)O (configuration not stated) (Boc-Tyr(Bn)-Lys(Cbz)-OH; configuration not given here) | 28 µM (inactive) | 27.3 µM (inactive) | 20.5 µM (inactive) | – | – | – | > 10 | 35.3 µM (inactive) | – | 68.1 µM (inactive) | 40.6 µM (inactive) | 40.1 µM (inactive) | 94.2 µM (inactive) | – | 28.2 µM (inactive) | 34.6 µM (inactive) | – | > 100 µM (inactive) | 17.8 µM (inactive)
6 | Nc1ccc2c(c1)C(=O)c1ccccc1-2 | > 100 µM (inactive) | > 100 µM (inactive) | > 100 µM (inactive) | > 100 µM (inactive) | > 100 µM (inactive) | 55.7 µM (inactive) | 95.5 | 54.8 µM (inactive) | > 100 µM (inactive) | > 100 µM (inactive) | > 100 µM (inactive) | – | > 100 µM (inactive) | 73.1 µM (inactive) | 62.5 µM (inactive) | > 100 µM (inactive) | > 100 µM (inactive) | 89.7 µM (inactive) | > 100 µM (inactive)
7 | O=C(NC1CCCCC1NC(c1ccccc1)(c1ccccc1)c1ccccc1)C(=O)NC1CCCCC1NC(c1ccccc1)(c1ccccc1)c1ccccc1 (configuration not stated) | > 100 µM (inactive) | > 100 µM (inactive) | > 10 µM (inactive) | 24 µM (inactive) | > 100 µM (inactive) | > 100 µM (inactive) | > 100 | > 100 µM (inactive) | > 100 µM (inactive) | > 100 µM (inactive) | > 100 µM (inactive) | – | > 100 µM (inactive) | > 100 µM (inactive) | > 100 µM (inactive) | > 100 µM (inactive) | 22.6 µM (inactive) | 67.3 µM (inactive) | –
8 | Nc1ncnc2c1ncn2[C@@H]1O[C@H](COC(c2ccccc2)(c2ccccc2)c2ccccc2)[C@@H](OC(=S)Oc2ccccc2)[C@@H]1F | 5.47 µM (inactive) | 11.5 µM (inactive) | 13.7 µM (inactive) | 3.66 µM (inactive) | 15.1 µM (inactive) | 4.55 µM (inactive) | 3.37 | 3.37 µM (inactive) | 4.03 µM (inactive) | 3.88 µM (inactive) | 4.89 µM (inactive) | – | – | 3.88 µM (inactive) | 4.72 µM (inactive) | 3.82 µM (inactive) | 9.08 µM (inactive) | 12.3 µM (inactive) | 2.82 µM (inactive)
9 | CO/C(=N\N=C\c1cc(OC)ccc1OC)c1ccncc1 | > 10 µM (inactive) | > 10 µM (inactive) | – | > 10 µM (inactive) | – | – | > 10 | > 10 µM (inactive) | – | > 10 µM (inactive) | > 10 µM (inactive) | > 10 µM (inactive) | > 10 µM (inactive) | > 10 µM (inactive) | > 10 µM (inactive) | > 10 µM (inactive) | – | – | > 10 µM (inactive)
10 | Cc1ccc(Cc2n[nH]c(=O)n2N2C(=O)c3ccccc3C2=O)cc1 | > 100 µM (inactive) | > 100 µM (inactive) | > 100 µM (inactive) | – | > 100 µM (inactive) | > 100 µM (inactive) | > 100 | > 100 µM (inactive) | > 100 µM (inactive) | > 100 µM (inactive) | > 100 µM (inactive) | > 100 µM (inactive) | > 100 µM (inactive) | > 100 µM (inactive) | > 100 µM (inactive) | > 100 µM (inactive) | > 100 µM (inactive) | > 100 µM (inactive) | –
11 | COc1ccc(CC(O)CN2CCOCC2)cc1 (configuration not stated) | > 100 µM (inactive) | > 100 µM (inactive) | > 100 µM (inactive) | > 100 µM (inactive) | > 100 µM (inactive) | > 100 µM (inactive) | > 100 | > 100 µM (inactive) | > 100 µM (inactive) | > 100 µM (inactive) | > 100 µM (inactive) | > 100 µM (inactive) | > 100 µM (inactive) | > 100 µM (inactive) | > 100 µM (inactive) | – | > 100 µM (inactive) | > 100 µM (inactive) | > 100 µM (inactive)
12 | CC1(C(=O)O)CCCC1C(=O)O (configuration not stated) | > 100 µM (inactive) | > 100 µM (inactive) | > 100 µM (inactive) | > 100 µM (inactive) | > 100 µM (inactive) | > 100 µM (inactive) | > 100 | > 100 µM (inactive) | – | > 100 µM (inactive) | > 100 µM (inactive) | > 100 µM (inactive) | > 100 µM (inactive) | > 100 µM (inactive) | > 100 µM (inactive) | – | > 100 µM (inactive) | > 100 µM (inactive) | > 100 µM (inactive)
13 | CN(C)CCCNC(=O)N/N=C/c1ccc(O)cc1 | > 100 µM (inactive) | > 100 µM (inactive) | > 100 µM (inactive) | > 100 µM (inactive) | > 100 µM (inactive) | > 100 µM (inactive) | > 100 | > 100 µM (inactive) | > 100 µM (inactive) | > 100 µM (inactive) | > 100 µM (inactive) | > 100 µM (inactive) | > 100 µM (inactive) | – | > 100 µM (inactive) | > 100 µM (inactive) | – | – | –
14 | N[C@H](Cc1ccc2oc3cc(=O)c4ccccc4c-3nc2c1)C(=O)O | – | 34.4 µM (inactive) | 26.7 µM (inactive) | 79.6 µM (inactive) | 21.7 µM (inactive) | 29.2 µM (inactive) | 39.4 | 30.5 µM (inactive) | 15.5 µM (inactive) | – | 20.1 µM (inactive) | 15.3 µM (inactive) | 21 µM (inactive) | 33.2 µM (inactive) | 37.3 µM (inactive) | 28.5 µM (inactive) | > 100 µM (inactive) | > 100 µM (inactive) | 70.1 µM (inactive)
15 | CC1(C(O)c2ccccc2)CN(C(C)(C)C)C(=O)/C1=C\Sc1ccccc1 (configuration not stated) | 21.3 µM (inactive) | > 100 µM (inactive) | > 100 µM (inactive) | 1.76 µM (inactive) | > 100 µM (inactive) | 21.2 µM (inactive) | 29.2 | 28.2 µM (inactive) | 30.1 µM (inactive) | 17.3 µM (inactive) | 43.7 µM (inactive) | 39.1 µM (inactive) | – | 14.1 µM (inactive) | 31.8 µM (inactive) | 33.7 µM (inactive) | 27.4 µM (inactive) | 83 µM (inactive) | –
16 | CCOC(=O)C(CS)NC(=O)CCCCCCCC(=O)O (configuration not stated) | > 100 µM (inactive) | > 100 µM (inactive) | > 100 µM (inactive) | – | > 100 µM (inactive) | > 100 µM (inactive) | > 100 | > 100 µM (inactive) | > 100 µM (inactive) | > 100 µM (inactive) | > 100 µM (inactive) | > 100 µM (inactive) | > 100 µM (inactive) | > 100 µM (inactive) | > 100 µM (inactive) | > 100 µM (inactive) | > 100 µM (inactive) | > 100 µM (inactive) | –
17 | CC(=O)Oc1cc2c(n(C)c1=O)-c1ccccc1C2 | > 100 µM (inactive) | > 100 µM (inactive) | 75.3 µM (inactive) | 44.1 µM (inactive) | > 100 µM (inactive) | 33.3 µM (inactive) | 28.1 | 32 µM (inactive) | > 100 µM (inactive) | 40.8 µM (inactive) | 85.3 µM (inactive) | > 100 µM (inactive) | 31.8 µM (inactive) | 29.4 µM (inactive) | > 100 µM (inactive) | – | 32.5 µM (inactive) | – | > 100 µM (inactive)
